Assay results taken from ChEMBL document CHEMBL4321813, “Discovery of GSK3527497: A Candidate for the Inhibition of Transient Receptor Potential Vanilloid-4 (TRPV4)” (J Med Chem, 2019).
≈ marks a conversion by molar mass, not a printed value.

Assays:
[1] = Mean residence time in dog; type: ADME, Canis lupus familiaris; conditions: in vivo
[2] = Clearance in dog; type: ADME, Canis lupus familiaris; conditions: in vivo
[3] = target: T1, Transient receptor potential cation channel subfamily V member 4 (Homo sapiens, UniProt Q9HBA0); experiment: Antagonist activity at BacMam virus expressing human TRPV4 transduced in BHK/AC9 or HEK MSR2 cells assessed as inhibition of GSK634775-induced Ca2+ flux preincubated for 10 mins followed by agonist addition by Fluo-4 AM dye based FLIPR assay; type: cell-based
[4] = Lipophilicity, log D of the compound at pH 7.4 by chromatographic method; type: physicochemical; conditions: buffer
[5] = Solubility of the compound in FaSSIF measured after 4 hrs; type: physicochemical
[6] = MRT in Sprague-Dawley rat at 1 mg/kg, iv administered as 30 mins infusion by HPLC-MS/MS analysis; type: ADME, organism-based; conditions: in vivo
[7] = Clearance in Sprague-Dawley rat at 1 mg/kg, iv administered as 30 mins infusion by HPLC-MS/MS analysis; type: ADME, organism-based; conditions: in vivo
[8] = Volume of distribution at steady state in Sprague-Dawley rat at 1 mg/kg, iv administered as 30 mins infusion or 1 to 2 mg/kg, po by HPLC-MS/MS analysis; type: ADME, organism-based; conditions: in vivo, read-out: Vdss
[9] = Oral bioavailability in Sprague-Dawley rat at 1 to 2 mg/kg by HPLC-MS/MS analysis; type: ADME, organism-based; conditions: in vivo
[10] = Protein binding in rat plasma assessed as unbound fraction; type: ADME, cell-free
[11] = Unbound clearance in Sprague-Dawley rat at 1 mg/kg, iv administered as 30 mins infusion by HPLC-MS/MS analysis; type: ADME, organism-based; conditions: in vivo, 0.5 h
[12] = Unbound volume of distribution at steady state in Sprague-Dawley rat at 1 mg/kg, iv administered as 30 mins infusion or 1 to 2 mg/kg, po by HPLC-MS/MS analysis; type: ADME, organism-based; conditions: in vivo, 0.5 h
[13] = target: Voltage-gated inwardly rectifying potassium channel KCNH2 (Homo sapiens, UniProt Q12809); experiment: Inhibition of human ERG by electrophysiology
Cytochrome P450 3A4 = Cytochrome P450 3A4 (Homo sapiens, UniProt P08684); experiment: Inhibition of CYP3A4 (unknown origin); type: ADME
[14] = Apparent permeability in dog MDCK cells; type: ADME, cell-based, Canis lupus familiaris
[15] = Dose normalized AUC in Sprague-Dawley rat at 100 mg/kg, po by HPLC-MS/MS analysis; type: ADME, organism-based; conditions: in vivo
[16] = Oral bioavailability in Sprague-Dawley rat at 100 mg/kg by HPLC-MS/MS analysis; type: ADME, organism-based; conditions: in vivo
[17] = Dose normalized AUC in Sprague-Dawley rat at 2 mg/kg, po by HPLC-MS/MS analysis; type: ADME, organism-based; conditions: in vivo
[18] = Volume of distribution at steady state in dog; type: ADME, Canis lupus familiaris; conditions: in vivo, read-out: Vdss
[19] = Oral bioavailability in dog; type: ADME, organism-based, Canis lupus familiaris; conditions: in vivo
[20] = Protein binding in dog plasma assessed as unbound fraction; type: ADME, cell-free, Canis lupus familiaris
[21] = Unbound clearance in dog; type: ADME, Canis lupus familiaris; conditions: in vivo
[22] = Unbound volume of distribution at steady state in dog; type: ADME, Canis lupus familiaris; conditions: in vivo
[23] = Ratio of unbound clearance in Sprague-Dawley rat at 1 mg/kg, iv administered as 30 mins infusion to unbound clearance in dog; type: ADME, organism-based; conditions: in vivo, 0.5 h
[24] = target: T1, Transient receptor potential cation channel subfamily V member 4; experiment: Antagonist activity at human TRPV4
[25] = Dose normalized AUC in Sprague-Dawley rat at 100 mg/kg, po using crystalline solid form of sample by HPLC-MS/MS analysis; type: ADME, organism-based; conditions: in vivo
[26] = Oral bioavailability in Sprague-Dawley rat at 100 mg/kg using crystalline solid form of sample by HPLC-MS/MS analysis; type: ADME, organism-based; conditions: in vivo
[27] = Dose normalized AUC in Sprague-Dawley rat at 100 mg/kg, po using amorphous spray dried dispersion sample by HPLC-MS/MS analysis; type: ADME, organism-based; conditions: in vivo
[28] = Oral bioavailability in Sprague-Dawley rat at 100 mg/kg using amorphous spray dried dispersion sample by HPLC-MS/MS analysis; type: ADME, organism-based; conditions: in vivo
[29] = Dose normalized AUC in Sprague-Dawley rat at 1 mg/kg, po by HPLC-MS/MS analysis; type: ADME, organism-based; conditions: in vivo
[30] = Oral bioavailability in Sprague-Dawley rat at 1 mg/kg by HPLC-MS/MS analysis; type: ADME, organism-based; conditions: in vivo
[31] = Unbound AUC in human; type: ADME
Rattus norvegicus = experiment: Ratio of dose normalized AUC in Sprague-Dawley rat at 100 mg/kg, po using amorphous spray dried dispersion sample to dose normalized AUC in Sprague-Dawley rat at 100 mg/kg, po using crystalline solid form of sample; type: ADME, organism-based; conditions: in vivo
[32] = Drug metabolism in rat hepatocytes assessed as GSH-mediated sulfonamide cleavage by measuring 2-amino-5-[[2-(carboxymethylamino)-1-[[2-cyano-4-(trifluoromethyl)phenyl]sulfanylmethyl]-2-oxo-ethyl]amino]-5-oxo-pentanoic acid formation by LC-MS/MS analysis; type: ADME, cell-based, Hepatocyte
[33] = Drug metabolism in rat hepatocytes assessed as rearomatization/conjugation by measuring metabolite formation by LC-MS/MS analysis; type: ADME, cell-based, Hepatocyte
[34] = Drug metabolism in rat hepatocytes assessed as oxidation of arene oxide metabolite by measuring 2-[(3R,4S)-4-(4-cyano-3-fluoro-phenoxy)-3-hydroxy-3-(hydroxymethyl)pyrrolidin-1-yl]sulfonyl-3,4-dihydroxy-5-(trifluoromethyl)benzonitrile formation by LC-MS/MS analysis; type: ADME, cell-based, Hepatocyte
[35] = Ratio of Cmax to Cmin in human; type: ADME

T1 sequence (Q9HBA0 whole entry): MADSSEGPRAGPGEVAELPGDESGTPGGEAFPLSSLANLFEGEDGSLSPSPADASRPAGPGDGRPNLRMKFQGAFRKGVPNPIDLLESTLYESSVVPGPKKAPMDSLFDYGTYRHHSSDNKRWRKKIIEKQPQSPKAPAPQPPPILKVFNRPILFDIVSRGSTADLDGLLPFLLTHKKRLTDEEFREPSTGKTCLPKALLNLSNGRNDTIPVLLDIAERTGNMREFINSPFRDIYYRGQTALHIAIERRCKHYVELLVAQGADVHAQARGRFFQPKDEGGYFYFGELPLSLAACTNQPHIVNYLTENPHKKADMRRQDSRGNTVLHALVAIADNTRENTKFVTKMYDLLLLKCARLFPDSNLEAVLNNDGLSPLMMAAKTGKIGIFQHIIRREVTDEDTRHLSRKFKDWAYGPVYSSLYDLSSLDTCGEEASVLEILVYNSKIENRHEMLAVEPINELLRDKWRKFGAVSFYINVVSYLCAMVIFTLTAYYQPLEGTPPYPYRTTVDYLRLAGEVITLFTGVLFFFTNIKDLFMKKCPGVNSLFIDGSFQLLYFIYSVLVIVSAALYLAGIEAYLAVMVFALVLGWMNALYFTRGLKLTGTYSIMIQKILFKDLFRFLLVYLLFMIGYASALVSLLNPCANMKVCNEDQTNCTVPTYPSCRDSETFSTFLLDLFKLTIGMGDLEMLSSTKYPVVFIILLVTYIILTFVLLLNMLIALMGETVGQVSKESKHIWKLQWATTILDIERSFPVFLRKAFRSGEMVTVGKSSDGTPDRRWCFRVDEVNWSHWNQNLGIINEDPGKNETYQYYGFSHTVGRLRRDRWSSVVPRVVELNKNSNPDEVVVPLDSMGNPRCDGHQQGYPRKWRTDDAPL
Cytochrome P450 3A4, sequence (P08684 whole entry): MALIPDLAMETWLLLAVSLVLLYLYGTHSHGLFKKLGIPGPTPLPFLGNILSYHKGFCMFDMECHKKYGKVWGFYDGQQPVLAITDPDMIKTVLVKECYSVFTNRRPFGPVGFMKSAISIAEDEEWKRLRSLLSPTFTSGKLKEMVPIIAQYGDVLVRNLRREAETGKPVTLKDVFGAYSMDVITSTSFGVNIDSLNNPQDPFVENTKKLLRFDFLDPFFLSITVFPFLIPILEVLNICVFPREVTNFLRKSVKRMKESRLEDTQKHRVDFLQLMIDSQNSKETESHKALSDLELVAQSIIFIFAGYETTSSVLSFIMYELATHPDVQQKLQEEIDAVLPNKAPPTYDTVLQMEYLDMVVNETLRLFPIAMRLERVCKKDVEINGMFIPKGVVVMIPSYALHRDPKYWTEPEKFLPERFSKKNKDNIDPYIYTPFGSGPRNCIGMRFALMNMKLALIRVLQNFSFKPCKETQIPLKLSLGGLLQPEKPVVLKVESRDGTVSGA
Voltage-gated inwardly rectifying potassium channel KCNH2, sequence (Q12809 whole entry): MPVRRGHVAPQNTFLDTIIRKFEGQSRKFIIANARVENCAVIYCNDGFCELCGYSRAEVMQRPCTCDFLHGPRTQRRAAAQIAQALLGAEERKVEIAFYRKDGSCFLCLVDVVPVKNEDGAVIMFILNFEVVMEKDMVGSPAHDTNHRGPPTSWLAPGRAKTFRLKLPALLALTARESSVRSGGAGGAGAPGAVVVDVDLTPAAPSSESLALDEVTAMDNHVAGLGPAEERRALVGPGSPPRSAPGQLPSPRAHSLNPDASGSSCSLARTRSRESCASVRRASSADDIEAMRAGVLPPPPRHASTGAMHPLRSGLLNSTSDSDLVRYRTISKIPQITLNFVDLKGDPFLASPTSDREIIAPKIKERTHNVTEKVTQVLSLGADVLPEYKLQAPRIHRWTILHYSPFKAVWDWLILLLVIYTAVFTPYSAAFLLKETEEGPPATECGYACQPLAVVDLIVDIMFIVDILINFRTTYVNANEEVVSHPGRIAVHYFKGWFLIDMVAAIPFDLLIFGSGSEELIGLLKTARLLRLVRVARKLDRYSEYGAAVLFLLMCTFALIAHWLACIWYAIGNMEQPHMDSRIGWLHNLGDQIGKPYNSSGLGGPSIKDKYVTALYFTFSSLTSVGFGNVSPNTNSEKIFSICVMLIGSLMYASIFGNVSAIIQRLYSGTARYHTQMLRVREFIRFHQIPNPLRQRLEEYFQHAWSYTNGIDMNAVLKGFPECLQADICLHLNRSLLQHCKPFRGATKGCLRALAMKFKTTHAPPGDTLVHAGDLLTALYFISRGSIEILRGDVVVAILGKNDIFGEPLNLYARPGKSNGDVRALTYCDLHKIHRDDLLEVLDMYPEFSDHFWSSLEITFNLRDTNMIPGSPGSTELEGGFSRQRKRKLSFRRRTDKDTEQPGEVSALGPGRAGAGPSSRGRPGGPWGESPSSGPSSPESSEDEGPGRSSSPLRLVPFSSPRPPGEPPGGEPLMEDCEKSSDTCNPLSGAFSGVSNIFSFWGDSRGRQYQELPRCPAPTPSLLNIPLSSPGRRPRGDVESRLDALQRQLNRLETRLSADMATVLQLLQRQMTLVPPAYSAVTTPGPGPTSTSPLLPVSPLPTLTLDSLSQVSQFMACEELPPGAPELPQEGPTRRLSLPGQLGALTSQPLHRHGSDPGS

| IC50 [3] | chromatographic logD [4] | solubility at 4 h [5] | MRT [6] | clearance [7] | Vd [8] | bioavailability [9] | fraction unbound [10] | CL free [11] | Vduss [12] | Compound | further results |
| --- | --- | --- | --- | --- | --- | --- | --- | --- | --- | --- | --- |
| 100 nM | 4.5 | 5 µg/mL (≈ 10.9 µM) | 2 h | 50 mL/min/kg | 5.9 L/kg | 100% | 0.033 | 1500 mL/min/kg | 180 L/kg | N#Cc1ccc(O[C@H]2CN(S(=O)(=O)c3ccc(C(F)(F)F)cc3)C[C@@]2(O)CO)cc1F |  |
| 3800 nM | 3.1 | > 1000 µg/mL |  |  |  |  |  |  |  | N#Cc1ccc(S(=O)(=O)[C@H]2CN(S(=O)(=O)c3ccc(Cl)cn3)C[C@@]2(O)CO)cc1 |  |
| 3.5 nM | 4 | 78 µg/mL (≈ 169 µM) | 3.2 h | 40 mL/min/kg | 7.7 L/kg | 24% | 0.036 | 1100 mL/min/kg | 210 L/kg | N#Cc1ccc(O[C@H]2CN(S(=O)(=O)c3ccc(Cl)cc3Cl)C[C@@]2(O)CN)cc1F (racemic) | IC50 (Cytochrome P450 3A4): 1600 nM; fAUC [31]: 170 ng·h/mL |
| 33 nM | 4.9 | 88 µg/mL (≈ 191 µM) | 4.8 h | 54 mL/min/kg | 13 L/kg | 100% | 0.04 | 1350 mL/min/kg | 330 L/kg | N#Cc1ccc(O[C@H]2CN(S(=O)(=O)c3ccc(Cl)cc3Cl)CC2(O)CO)cc1F (single isomer, unassigned) |  |
|  |  | 19 µg/mL (≈ 41.2 µM) |  |  | 3.2 L/kg |  |  |  | 54 L/kg | N#Cc1ccc(O[C@H]2CN(S(=O)(=O)c3ccc(Cl)cc3Cl)C[C@@]2(O)CO)cc1F | Ratio [35]: 15; fAUC [31]: 240 ng·h/mL |

More lines, now with the values behind:

| Compound | IC50 [3] | chromatographic logD [4] | solubility at 4 h [5] | MRT [6] | clearance [7] | Vd [8] | bioavailability [9] | fraction unbound [10] | CL free [11] | Vduss [12] | further results |
| --- | --- | --- | --- | --- | --- | --- | --- | --- | --- | --- | --- |
| N#Cc1ccc(O[C@H]2CN(S(=O)(=O)c3ccc(Cl)cn3)C[C@@]2(O)CN)cc1F | 12 nM | 2.5 | > 1000 µg/mL | 2.5 h | 45 mL/min/kg | 6.7 L/kg | 26% | 0.14 | 320 mL/min/kg | 47 L/kg | MRT [1]: 17 h; clearance [2]: 5.9 mL/min/kg; IC50 [13]: 20000 nM; IC50 (Cytochrome P450 3A4): 12000 nM; Papp [14]: 0.08 ×10⁻⁶ cm/s; AUC/dose [15]: 0.31 kg·h/L; bioavailability [16]: 87%; AUC/dose [17]: 0.092 kg·h/L; Vd [18]: 5.9 L/kg; bioavailability [19]: 84%; fraction unbound [20]: 0.32; CL free [21]: 18 mL/min/kg; Vduss [22]: 18 L/kg; Ratio [23]: 18 |
| CC(C)Nc1nc2c(C(=O)N(C)C)c(Cl)c(Cl)cc2n1C1CCN(c2ccc(C(C)(C)C#N)cc2)CC1 |  |  |  |  |  |  |  |  |  |  | IC50 [24]: 32 nM |
| N#Cc1ccc(O[C@H]2CN(S(=O)(=O)c3ccc(Cl)cn3)C[C@@]2(O)CO)cc1F | 34 nM | 3.4 | 26 µg/mL (≈ 60.8 µM) | 1.2 h | 30 mL/min/kg | 2.2 L/kg | 100% | 0.18 | 170 mL/min/kg | 12 L/kg | MRT [1]: 7.8 h; clearance [2]: 4.1 mL/min/kg; AUC/dose [25]: 0.043 kg·h/L; bioavailability ([26]; Sprague-Dawley): 7%; AUC/dose [27]: 0.5 kg·h/L; bioavailability [28]: 79%; AUC/dose [29]: 0.63 kg·h/L; bioavailability [30]: 100%; Papp [14]: 0.22 ×10⁻⁶ cm/s; Vd [18]: 1.9 L/kg; bioavailability [19]: 100%; fraction unbound [20]: 0.34; CL free [21]: 12 mL/min/kg; Vduss [22]: 5.5 L/kg; Ratio [23]: 14 |
| N#Cc1ccc(O[C@H]2CN(S(=O)(=O)c3ccccc3C#N)C[C@@]2(O)CO)cc1F | 3.8 nM | 3.4 | 20 µg/mL (≈ 47.9 µM) | 0.4 h | 39 mL/min/kg | 0.9 L/kg | 32% | 0.197 | 200 mL/min/kg | 4.6 L/kg |  |
| N#Cc1ccc(O[C@H]2CN(S(=O)(=O)c3ccc(Cl)cn3)C[C@]2(O)CO)cc1F | 190 nM | 3.5 | 130 µg/mL (≈ 304 µM) | 3.3 h |  |  |  |  | 150 mL/min/kg |  |  |
| N#Cc1ccc(S(=O)(=O)[C@H]2CN(S(=O)(=O)c3ccc(Cl)cc3Cl)C[C@@]2(O)CO)cc1 | 8 nM | 4.5 | 270 µg/mL (≈ 549 µM) |  |  |  | 100% | 0.027 | 925 mL/min/kg | 85 L/kg |  |
| N#Cc1ccc(O[C@H]2CN(S(=O)(=O)c3ccc(C(F)(F)F)cc3C#N)C[C@@]2(O)CO)cc1F |  |  | 25 µg/mL (≈ 51.5 µM) |  |  | 3.6 L/kg |  |  |  | 73 L/kg | AUC/dose [25]: 0.0021 kg·h/L; F [26]: 1%; AUC/dose [27]: 0.038 kg·h/L; bioavailability [28]: 18%; Ratio AUC (Rattus norvegicus): 18; AUC/dose [29]: 0.148 kg·h/L; Ratio [23]: 22; Drug metabolism [32]: Metabolite_Detected; Drug metabolism [33]: Metabolite_Detected; Drug metabolism [34]: Metabolite_Detected; Ratio [35]: 30 |
| N#Cc1ccc(O[C@H]2CN(S(=O)(=O)c3ccc(C(F)(F)F)nc3)C[C@@]2(O)CO)cc1F | 175 nM | 4.2 | 98 µg/mL (≈ 212 µM) | 2.3 h | 31 mL/min/kg | 4.1 L/kg | 100% | 0.147 | 210 mL/min/kg | 28 L/kg | Ratio [23]: 13 |
| N#Cc1ccc(O[C@H]2CN(S(=O)(=O)c3ccc(Cl)cc3)C[C@@]2(O)CO)cc1F | 53 nM | 4.1 | 44 µg/mL (≈ 103 µM) | 1.9 h | 54 mL/min/kg | 6 L/kg | 83% | 0.035 | 1540 mL/min/kg | 170 L/kg |  |
